Measured values: ChEMBL document CHEMBL5385859, “Research progress and challenges of TRPV1 channel modulators as a prospective therapy for diabetic neuropathic pain” (Eur J Med Chem, 2023)

Tests used:
[1] = Lipophilicity, […] of the compound at pH 6.5; type: physicochemical; settings: buffer
[2] = species on record: Mus musculus; experiment: Analgesic activity in CCI-induced neuropathic pain in wild type C57BL/6 mouse model assessed as reduction in paw threshold pain measured after 2 hrs; type: functional
[3] = Lipophilicity, log P of the compound in PBS buffer; type: physicochemical
[4] = molecular target: T1, Transient receptor potential cation channel subfamily V member 1 (Homo sapiens, UniProt Q8NER1); experiment: Antagonist activity at TRPV1 (unknown origin)
[5] = test system: Mus musculus; experiment: Analgesic activity in CCI-induced neuropathic pain mouse model assessed as increase in mechanical paw withdrawal threshold at 5 mg/kg,ip administration measured after 30 mins by von frey test; type: functional, organism-based; settings: 0.5 h
[6] = molecular target: T1, Transient receptor potential cation channel subfamily V member 1; experiment: Agonist activity at human TRPV1 overexpressed in HEK293 cells incubated for 1 hr by Fluo-4 AM dye based microscopic analysis; type: cell-based
[7] = molecular target: T1, Transient receptor potential cation channel subfamily V member 1; experiment: Antagonist activity at human recombinant TPRV1
[8] = molecular target: T1, Transient receptor potential cation channel subfamily V member 1; experiment: Inhibition of TRPV1 (unknown origin)
[9] = molecular target: T1, Transient receptor potential cation channel subfamily V member 1; experiment: Binding affinity to human TRPV1 assessed as inhibition constant by SPR analysis
[10] = molecular target: T1, Transient receptor potential cation channel subfamily V member 1; experiment: Activation of human TRPV1 expressed in HEK293F cells; type: cell-based

T1 sequence (Q8NER1 whole entry): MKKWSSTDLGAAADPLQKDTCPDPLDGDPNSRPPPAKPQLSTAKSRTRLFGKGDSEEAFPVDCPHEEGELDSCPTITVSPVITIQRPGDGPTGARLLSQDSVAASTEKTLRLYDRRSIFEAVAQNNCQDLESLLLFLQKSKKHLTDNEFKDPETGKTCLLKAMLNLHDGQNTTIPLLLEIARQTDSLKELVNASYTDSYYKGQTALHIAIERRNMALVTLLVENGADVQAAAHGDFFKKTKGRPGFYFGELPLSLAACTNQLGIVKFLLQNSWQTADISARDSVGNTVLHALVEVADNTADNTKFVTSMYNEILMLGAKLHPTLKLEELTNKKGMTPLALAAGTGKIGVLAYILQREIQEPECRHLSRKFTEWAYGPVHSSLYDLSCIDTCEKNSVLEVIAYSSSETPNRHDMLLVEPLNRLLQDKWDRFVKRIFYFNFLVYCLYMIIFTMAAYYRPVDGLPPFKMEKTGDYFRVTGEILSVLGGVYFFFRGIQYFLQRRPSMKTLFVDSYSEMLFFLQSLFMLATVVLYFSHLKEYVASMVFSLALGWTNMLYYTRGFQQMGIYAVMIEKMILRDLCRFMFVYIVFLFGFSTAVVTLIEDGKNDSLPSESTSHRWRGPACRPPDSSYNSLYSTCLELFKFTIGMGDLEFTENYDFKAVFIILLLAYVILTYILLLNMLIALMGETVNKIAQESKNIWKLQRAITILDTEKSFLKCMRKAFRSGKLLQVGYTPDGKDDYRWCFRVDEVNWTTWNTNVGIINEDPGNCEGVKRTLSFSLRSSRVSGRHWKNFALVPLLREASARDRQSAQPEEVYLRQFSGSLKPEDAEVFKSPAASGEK

O=C(Nc1ccccc1Br)N[C@@H]1CCN(c2ccc(C(F)(F)F)cn2)C1 [SB-705498]
logD [1]: 3.98
Activity [2]: 8.8 nM

O=C(Nc1ccc(C(F)(F)F)cn1)N1CC=C(c2ncc([C@H](O)CO)cc2Cl)CC1
logD [1]: 2.11

CC(C)=CCCC1(C)CC1CO (centres undefined)
logP [3]: 2.5

COc1cc(CNC(=O)CCCC/C=C/C(C)C)ccc1O [CAPSAICIN]
logP [3]: 3.74

CC(C)(C)c1ccc(CNC(=S)NCc2ccc(NS(C)(=O)=O)c(F)c2)cc1
IC50 [4]: 0.008 µM

C=C(C)[C@]12C[C@@H](C)[C@@]34O[C@](Cc5ccccc5)(O[C@@H]1[C@@H]3C=C(COC(=O)Cc1ccc(O)c(OC)c1)C[C@]1(O)C(=O)C(C)=C[C@@H]41)O2 [RESINIFERATOXIN]
EC50 [5]: 0.92 µM

CNCC1CCCCN1C(=O)Oc1ccc(CNC(=O)CCCC/C=C/C(C)C)cc1OC (centres undefined) [VOCACAPSAICIN]
logP [3]: 4.32

CC(C)(C)c1ccc2c(c1)CC[C@H]2NC(=O)Nc1cccc2[nH]ncc12 [ABT-102]
logD [1]: 4.59

O=C(Nc1ccc(C(F)(F)F)cc1)N1CC=C(c2ncc([C@H](O)CO)cc2Cl)CC1
IC50 [6]: 0.0338 µM

C[C@H](NC(=O)Cn1cnc2ccc(F)c(F)c21)c1ccc(C(C)(C)C)cc1
logD [1]: 4.34
IC50 [7]: 0.005 µM

CC(C)c1cccc(C(C)C)c1O [PROPOFOL]
IC50 [8]: 0.00505 µM
logP [3]: 4.15

CC(C)(C)C(=O)OCC(CNC(=S)NCc1ccc(NS(C)(=O)=O)c(F)c1)Cc1ccccc1 (centres undefined)
Ki [9]: 0.0078 µM

CC(C)(C)c1ccc(CNC(=S)NCc2ccc(NS(C)(=O)=O)cc2)cc1
IC50 [4]: 0.00011 µM

O=C(Nc1cccc2cnccc12)N1CCC[C@H]1CNc1ccc(Br)cc1
IC50 [10]: 0.084 µM

COc1cc(C/N=C(\S)NCc2ccc(Cl)cc2)cc(I)c1O
IC50 [4]: 0.106 µM

CC(C)c1nc2cc(O)ccc2c(=O)n1-c1ccc(C#N)cc1
logD [1]: 3.45

Cc1ccc(N2c3cccc(C(=O)Nc4ccc(OCC(F)(F)F)nc4)c3OC[C@@H]2CO)nc1 [JTS-653]
logD [1]: 3.83
IC50 [7]: 0.236 µM

CCCc1nc(C(F)(F)F)ccc1/C=C/C(=O)N[C@H](C)c1cc(F)c(NS(C)(=O)=O)c(F)c1
logD [1]: 3.67

CC(=O)Nc1nc2c(Oc3cc(-c4ccc(C(F)(F)F)cc4)ncn3)cccc2s1 [AMG-517]
Activity [2]: 760 nM

CC(C)(O)c1ccccc1-c1ccc2[nH]c(/C=C/c3ccc(C(F)(F)F)cc3)nc2c1
logD [1]: 6.27
